This note sets out measurements from patent US11154519B2, “Inhibitors and their uses” (MEDICAL RESEARCH COUNCIL, priority 2015, dated 2021).

Assay [1] concerns dorsal root ganglia culture (DRG) from PMP22 mutant mice. The experiment in a line: Myelination in DRG explants from neuropathic mice. The format is cell-based. The note with it: 5 nM, 14 days. On the procedure:
Dorsal root ganglia (DRG) dissected from wild-type or Pmp22Tr-J (PMP22mutant) (Henry et al., Neuropathol. Exp. Neurol., 42, 688-706, 1983) embryo at 13.5 or […] (E13.5) were cultured on collagen coated coverslips in neurobasal media supplemented with 4 g/l glucose, 2 mM L-glutamine, 2% B27 supplement and 50 ng/ml neuronal growth factor (NGF) for 7 days. To differentiate Schwann cells and induce myelination, the cultured DRGs were then maintained in C-media (MEM media supplemented with 4 g/I glucose, 2 mM L-glutamine, 10% FCS, 50 ng/ml NGF). The C-media was replaced every other day with freshly added 50 μg/ml ascorbic acid ±5 nM of compound of Example I and cultured for 14 days for myelination by the Schwann cells. The cultured DRGs were then fixed in 4% paraformaldehyde and immunostained with MBP (Rat Myelin basic protein, 1/250 dilution, ab73498).
CMT is a group of myelin neuropathies caused by mutations in a number of genes. Mutations in the peripheral myelin protein PMP22 are the most common causes of CMT. A mutation in PMP22 (Trembler-J) causes the misfolding of PMP22 and a disease in mice that resembles CMT in human due to defects in myelin in the peripheral nervous system. Explants from PM P22 mutant mice recapitulates the severe hypomyelination observed in the human diseases. […] The compound of Example 1 will also be useful in the treatment of other myelin disorders.

For another assay, the system named is Db/db animals. The experiment in a line: Blood glucose in obese db/db mice. The format is in vivo. The note with it: 1 mg/kg once a day, three weeks. The method, then:
For treatment of a metabolic disorder, Db/db animals (n=5 per condition) were treated once a day with 1 mg/kg of compound of Example 1 for three weeks. Blood glucose levels were measured with a blood glucose meter (DSI) between 9 and 10 am. Data are mean+/−S.e.m.
It is known that metabolic diseases such as diabetes, obesity, fatty liver disease, and atherosclerosis are associated with pathological ER stress and it is believed that pharmacological modulators of the UPR may have therapeutic benefit. As there were no PPP1R15B inhibitors available prior to this study it was unclear whether PPP1R15B could be a therapeutic target in metabolic diseases. […] Having shown in one disease model that treatment with a compound of Example 1 is beneficial, it is evident that the compounds of the invention will be beneficial to other mammalian metabolic disorders such as diabetes, obesity, fatty liver disease, and atherosclerosis.

Consider `[H]/N=C(\N)NN=Cc1cccc(Cl)c1Cl` [Compound 16, (E)-2-(2,3-dichlorobenzylidene)hydrazine-1-carboximidamide], for which the “length of myelin internodes” value in assay [1] is “increased the length of myelin internodes in mutant DRG”. The blood glucose result in the assay with Db/db animals is given as “reduced the pathological high blood glucose”.
